{"source": "ChEMBL document CHEMBL4308841", "about": "“Synthesis, in vitro antiproliferative activity, and kinase inhibitory effects of pyrazole-containing diarylureas and diarylamides” (Eur J Med Chem, 2018)", "data": [{"test_system": "MCF7", "assay": "Growth inhibition of human MCF7 cells assessed as cell growth at 0.1 uM incubated for 48 hrs by sulforhodamine B assay relative to control", "assay_type": "functional", "conditions": "MCF7, 48 h, read-out: Activity", "units": {"growth at 0.1 µM": "%"}, "values": [{"smiles": "COc1cc(Cl)cc(-c2nn(-c3cccc(NC(=O)Nc4ccc(Cl)c(C(F)(F)F)c4)c3)cc2-c2ccncc2)c1", "growth at 0.1 µM": 93}]}, {"test_system": "OVCAR-4", "assay": "Growth inhibition of human OVCAR4 cells assessed as cell growth at 100 uM incubated for 48 hrs by sulforhodamine B assay relative to control", "assay_type": "functional", "conditions": "OVCAR-4, 48 h, read-out: Activity", "units": {"growth at 100 µM": "%"}, "values": [{"smiles": "COc1cc(Cl)cc(-c2nn(-c3cccc(NC(=O)Nc4ccc(Cl)c(C(F)(F)F)c4)c3)cc2-c2ccncc2)c1", "growth at 100 µM": -16}]}, {"test_system": "SW-620", "assay": "(§1) Growth inhibition of human SW620 cells incubated for 48 hrs by sulforhodamine B assay", "assay_type": "functional, cell-based", "conditions": "SW-620, 48 h, read-out: GI50", "units": {"GI50": "µM"}, "values": [{"smiles": "COc1cc(Cl)cc(-c2nn(-c3cccc(NC(=O)Nc4ccc(Cl)c(C(F)(F)F)c4)c3)cc2-c2ccncc2)c1", "GI50": 1.51}]}, {"test_system": "SW-620", "assay": "as §1", "assay_type": "functional, cell-based", "conditions": "SW-620, 48 h, read-out: LC50", "units": {"LC50": "µM"}, "values": [{"smiles": "COc1cc(Cl)cc(-c2nn(-c3cccc(NC(=O)Nc4ccc(Cl)c(C(F)(F)F)c4)c3)cc2-c2ccncc2)c1", "LC50": 5.78}]}, {"test_system": "SW-620", "assay": "as §1", "assay_type": "functional, cell-based", "conditions": "SW-620, 48 h, read-out: TGI", "units": {"TGI": "µM"}, "values": [{"smiles": "COc1cc(Cl)cc(-c2nn(-c3cccc(NC(=O)Nc4ccc(Cl)c(C(F)(F)F)c4)c3)cc2-c2ccncc2)c1", "TGI": 10.5}]}, {"test_system": "SW-620", "assay": "as §1", "assay_type": "functional, cell-based", "conditions": "SW-620, 48 h, read-out: pGI50 (converted)", "units": {"GI50": "µM"}, "values": [{"smiles": "COc1cc(Cl)cc(-c2nn(-c3cccc(NC(=O)Nc4ccc(Cl)c(C(F)(F)F)c4)c3)cc2-c2ccncc2)c1", "GI50": 1.62}]}, {"test_system": "SW-620", "assay": "as §1", "assay_type": "functional, cell-based", "conditions": "SW-620, 48 h, read-out: pLC50 (converted)", "units": {"LC50": "µM"}, "values": [{"smiles": "COc1cc(Cl)cc(-c2nn(-c3cccc(NC(=O)Nc4ccc(Cl)c(C(F)(F)F)c4)c3)cc2-c2ccncc2)c1", "LC50": 57.5}]}, {"test_system": "SW-620", "assay": "as §1", "assay_type": "functional, cell-based", "conditions": "SW-620, 48 h, read-out: pTGI (converted)", "units": {"TGI": "µM"}, "values": [{"smiles": "COc1cc(Cl)cc(-c2nn(-c3cccc(NC(=O)Nc4ccc(Cl)c(C(F)(F)F)c4)c3)cc2-c2ccncc2)c1", "TGI": 10.5}]}, {"test_system": "NCI-H522", "assay": "Growth inhibition of human NCI-H522 cells assessed as cell growth at 1 uM incubated for 48 hrs by sulforhodamine B assay relative to control", "assay_type": "functional", "conditions": "NCI-H522, 48 h, read-out: Activity", "units": {"growth at 1 µM": "%"}, "values": [{"smiles": "COc1cc(Cl)cc(-c2nn(-c3cccc(NC(=O)Nc4ccc(Cl)c(C(F)(F)F)c4)c3)cc2-c2ccncc2)c1", "growth at 1 µM": 34}]}, {"test_system": "A549", "assay": "Growth inhibition of human A549/ATCC cells assessed as cell growth at 0.1 uM incubated for 48 hrs by sulforhodamine B assay relative to control", "assay_type": "functional", "conditions": "A549, 48 h, read-out: Activity", "units": {"growth at 0.1 µM": "%"}, "values": [{"smiles": "COc1cc(Cl)cc(-c2nn(-c3cccc(NC(=O)Nc4ccc(Cl)c(C(F)(F)F)c4)c3)cc2-c2ccncc2)c1", "growth at 0.1 µM": 98}]}, {"test_system": "NCI-H322M", "assay": "(§2) Growth inhibition of human NCI-H322M cells incubated for 48 hrs by sulforhodamine B assay", "assay_type": "functional, cell-based", "conditions": "read-out: GI50", "units": {"GI50": "µM"}, "values": [{"smiles": "COc1cc(Cl)cc(-c2nn(-c3cccc(NC(=O)Nc4ccc(Cl)c(C(F)(F)F)c4)c3)cc2-c2ccncc2)c1", "GI50": 3.38}]}, {"test_system": "NCI-H322M", "assay": "as §2", "assay_type": "functional, cell-based", "conditions": "read-out: LC50 (the source's name)", "units": {"CC50": "µM"}, "values": [{"smiles": "COc1cc(Cl)cc(-c2nn(-c3cccc(NC(=O)Nc4ccc(Cl)c(C(F)(F)F)c4)c3)cc2-c2ccncc2)c1", "CC50": "> 100"}]}, {"test_system": "NCI-H322M", "assay": "as §2", "assay_type": "functional, cell-based", "conditions": "read-out: TGI", "units": {"TGI": "µM"}, "values": [{"smiles": "COc1cc(Cl)cc(-c2nn(-c3cccc(NC(=O)Nc4ccc(Cl)c(C(F)(F)F)c4)c3)cc2-c2ccncc2)c1", "TGI": 24}]}, {"test_system": "NCI-H322M", "assay": "as §2", "assay_type": "functional, cell-based", "conditions": "read-out: pGI50 (converted)", "units": {"GI50": "µM"}, "values": [{"smiles": "COc1cc(Cl)cc(-c2nn(-c3cccc(NC(=O)Nc4ccc(Cl)c(C(F)(F)F)c4)c3)cc2-c2ccncc2)c1", "GI50": 3.39}]}, {"test_system": "NCI-H322M", "assay": "as §2", "assay_type": "functional, cell-based", "conditions": "read-out: pLC50 (the source's name) (converted)", "units": {"CC50": "µM"}, "values": [{"smiles": "COc1cc(Cl)cc(-c2nn(-c3cccc(NC(=O)Nc4ccc(Cl)c(C(F)(F)F)c4)c3)cc2-c2ccncc2)c1", "CC50": "> 100"}]}, {"test_system": "NCI-H322M", "assay": "as §2", "assay_type": "functional, cell-based", "conditions": "read-out: pTGI (converted)", "units": {"TGI": "µM"}, "values": [{"smiles": "COc1cc(Cl)cc(-c2nn(-c3cccc(NC(=O)Nc4ccc(Cl)c(C(F)(F)F)c4)c3)cc2-c2ccncc2)c1", "TGI": 25.1}]}, {"test_system": "CAKI-1", "assay": "Growth inhibition of human Caki1 cells assessed as cell growth at 100 uM incubated for 48 hrs by sulforhodamine B assay relative to control", "assay_type": "functional", "conditions": "CAKI-1, 48 h, read-out: Activity", "units": {"growth at 100 µM": "%"}, "values": [{"smiles": "COc1cc(Cl)cc(-c2nn(-c3cccc(NC(=O)Nc4ccc(Cl)c(C(F)(F)F)c4)c3)cc2-c2ccncc2)c1", "growth at 100 µM": -40}]}, {"test_system": "UO-31", "assay": "Growth inhibition of human UO31 cells assessed as cell growth at 0.01 uM incubated for 48 hrs by sulforhodamine B assay relative to control", "assay_type": "functional", "conditions": "UO-31, 48 h, read-out: Activity", "units": {"growth at 0.01 µM": "%"}, "values": [{"smiles": "COc1cc(Cl)cc(-c2nn(-c3cccc(NC(=O)Nc4ccc(Cl)c(C(F)(F)F)c4)c3)cc2-c2ccncc2)c1", "growth at 0.01 µM": 91}]}, {"test_system": "T47D", "assay": "Growth inhibition of human T47D cells assessed as cell growth at 100 uM incubated for 48 hrs by sulforhodamine B assay relative to control", "assay_type": "functional", "conditions": "read-out: Activity", "units": {"growth at 100 µM": "%"}, "values": [{"smiles": "COc1cc(Cl)cc(-c2nn(-c3cccc(NC(=O)Nc4ccc(Cl)c(C(F)(F)F)c4)c3)cc2-c2ccncc2)c1", "growth at 100 µM": -18}]}, {"test_system": "Malme-3M", "assay": "(§3) Growth inhibition of human MALME-3M cells incubated for 48 hrs by sulforhodamine B assay", "assay_type": "functional, cell-based", "conditions": "read-out: GI50", "units": {"GI50": "µM"}, "values": [{"smiles": "COc1cc(Cl)cc(-c2nn(-c3cccc(NC(=O)Nc4ccc(Cl)c(C(F)(F)F)c4)c3)cc2-c2ccncc2)c1", "GI50": 1.21}]}, {"test_system": "Malme-3M", "assay": "as §3", "assay_type": "functional, cell-based", "conditions": "read-out: LC50 (the source's name)", "units": {"CC50": "µM"}, "values": [{"smiles": "COc1cc(Cl)cc(-c2nn(-c3cccc(NC(=O)Nc4ccc(Cl)c(C(F)(F)F)c4)c3)cc2-c2ccncc2)c1", "CC50": "> 100"}]}, {"test_system": "Malme-3M", "assay": "as §3", "assay_type": "functional, cell-based", "conditions": "read-out: TGI", "units": {"TGI": "µM"}, "values": [{"smiles": "COc1cc(Cl)cc(-c2nn(-c3cccc(NC(=O)Nc4ccc(Cl)c(C(F)(F)F)c4)c3)cc2-c2ccncc2)c1", "TGI": 85}]}, {"test_system": "Malme-3M", "assay": "as §3", "assay_type": "functional, cell-based", "conditions": "read-out: pGI50 (converted)", "units": {"GI50": "µM"}, "values": [{"smiles": "COc1cc(Cl)cc(-c2nn(-c3cccc(NC(=O)Nc4ccc(Cl)c(C(F)(F)F)c4)c3)cc2-c2ccncc2)c1", "GI50": 1.7}]}, {"test_system": "Malme-3M", "assay": "as §3", "assay_type": "functional, cell-based", "conditions": "read-out: pLC50 (the source's name) (converted)", "units": {"CC50": "µM"}, "values": [{"smiles": "COc1cc(Cl)cc(-c2nn(-c3cccc(NC(=O)Nc4ccc(Cl)c(C(F)(F)F)c4)c3)cc2-c2ccncc2)c1", "CC50": "> 100"}]}, {"test_system": "Malme-3M", "assay": "as §3", "assay_type": "functional, cell-based", "conditions": "read-out: pTGI (converted)", "units": {"TGI": "µM"}, "values": [{"smiles": "COc1cc(Cl)cc(-c2nn(-c3cccc(NC(=O)Nc4ccc(Cl)c(C(F)(F)F)c4)c3)cc2-c2ccncc2)c1", "TGI": 3.16}]}, {"test_system": "Hs-578T", "assay": "Growth inhibition of human Hs578T cells assessed as cell growth at 0.1 uM incubated for 48 hrs by sulforhodamine B assay relative to control", "assay_type": "functional", "conditions": "read-out: Activity", "units": {"growth at 0.1 µM": "%"}, "values": [{"smiles": "COc1cc(Cl)cc(-c2nn(-c3cccc(NC(=O)Nc4ccc(Cl)c(C(F)(F)F)c4)c3)cc2-c2ccncc2)c1", "growth at 0.1 µM": 90}]}, {"test_system": "NCI/ADR-RES", "assay": "Growth inhibition of human NCI/ADR-RES cells assessed as cell growth at 0.1 uM incubated for 48 hrs by sulforhodamine B assay relative to control", "assay_type": "functional", "conditions": "read-out: Activity", "units": {"growth at 0.1 µM": "%"}, "values": [{"smiles": "COc1cc(Cl)cc(-c2nn(-c3cccc(NC(=O)Nc4ccc(Cl)c(C(F)(F)F)c4)c3)cc2-c2ccncc2)c1", "growth at 0.1 µM": 69}]}, {"test_system": "CAKI-1", "assay": "Growth inhibition of human Caki1 cells assessed as cell growth at 0.01 uM incubated for 48 hrs by sulforhodamine B assay relative to control", "assay_type": "functional", "conditions": "CAKI-1, 48 h, read-out: Activity", "units": {"growth at 0.01 µM": "%"}, "values": [{"smiles": "COc1cc(Cl)cc(-c2nn(-c3cccc(NC(=O)Nc4ccc(Cl)c(C(F)(F)F)c4)c3)cc2-c2ccncc2)c1", "growth at 0.01 µM": 98}]}, {"test_system": "MCF7", "assay": "Growth inhibition of human MCF7 cells assessed as cell growth at 0.01 uM incubated for 48 hrs by sulforhodamine B assay relative to control", "assay_type": "functional", "conditions": "MCF7, 48 h, read-out: Activity", "units": {"growth at 0.01 µM": "%"}, "values": [{"smiles": "COc1cc(Cl)cc(-c2nn(-c3cccc(NC(=O)Nc4ccc(Cl)c(C(F)(F)F)c4)c3)cc2-c2ccncc2)c1", "growth at 0.01 µM": 90}]}, {"test_system": "786-0", "assay": "Growth inhibition of human 786-0 cells assessed as cell growth at 0.1 uM incubated for 48 hrs by sulforhodamine B assay relative to control", "assay_type": "functional", "conditions": "786-0, 48 h, read-out: Activity", "units": {"growth at 0.1 µM": "%"}, "values": [{"smiles": "COc1cc(Cl)cc(-c2nn(-c3cccc(NC(=O)Nc4ccc(Cl)c(C(F)(F)F)c4)c3)cc2-c2ccncc2)c1", "growth at 0.1 µM": 96}]}]}
